Activity calls are given as the source filed them. The rule behind the calls is not given here.
Experiments:
[1] = Metabolic stability of the compound in mouse liver extract assessed as compound remaining measured after 24 hrs in presence of mouse liver extract medium by RP-HPLC analysis relative to control; assay type: ADME, tissue-based; conditions: read-out: Stability
[2] = Cytotoxicity in human CEM/0 cells assessed as reduction in cell viability; assay type: toxicity, cell-based; conditions: CEM/0 cells (CCRF-CEM)
[3] = test system: Human immunodeficiency virus 2; experiment: Antiviral activity against HIV2 ROD infected in CEM/0 cells assessed as inhibition of HIV induced cytopathogenic effects; assay type: functional, organism-based; conditions: Human immunodeficiency virus 2, ROD, CCRF-CEM
[4] = test system: Human immunodeficiency virus 2; experiment: Antiviral activity against […] HIV2 ROD infected in CEM-TK(-) cells assessed as inhibition of HIV induced cytopathogenic effects; assay type: functional, organism-based; conditions: Human immunodeficiency virus 2, ROD
[5] = test system: Human immunodeficiency virus 1; experiment: Antiviral activity against HIV1 HE strain infected in CEM/0 cells assessed as inhibition of HIV induced cytopathogenic effects; assay type: functional, organism-based; conditions: Human immunodeficiency virus 1, HE, CCRF-CEM
[6] = Stability of the compound assessed as cleaved half life in presence of CEM/0 cell extract medium measured upto 25 hrs by RP-HPLC analysis; assay type: physicochemical; conditions: human
[7] = Stability in PBS buffer assessed as clevage of first masking group half life in at pH 7.3 in presence of CEM/0 cell extract medium by RP-HPLC analysis; assay type: physicochemical; conditions: human, PBS buffer with CEM/0 cell extract
[8] = Stability in buffer assessed as pig liver esterase-mediated clevage of first masking group half life at pH 7.3 by RP-HPLC analysis; assay type: ADME, tissue-based
[9] = Chemical stability in PBS buffer assessed dephosphorylated half life measured after 24 hrs in presence of CEM/0 cell extract medium by RP-HPLC analysis relative to control; assay type: physicochemical; conditions: human, PBS buffer with CEM/0 cell extract
[10] = Chemical stability in PBS buffer assessed half life measured after 24 hrs in presence of CEM/0 cell extract medium by RP-HPLC analysis relative to control; assay type: physicochemical; conditions: human, PBS buffer with CEM/0 cell extract
[11] = Metabolic stability of the compound in pig liver extract assessed as half life measured after 24 hrs in presence of pig liver extract medium by RP-HPLC analysis; assay type: ADME, tissue-based, Sus scrofa
[12] = Metabolic stability of the compound in mouse liver extract assessed as hydrolysis half life measured after 24 hrs in presence of mouse liver extract medium by RP-HPLC analysis; assay type: ADME, tissue-based
[13] = molecular target: DNA polymerase beta (Homo sapiens) (UniProt P06746); experiment: Substrate activity at human DNA polymerase beta using 5'-Cy3-CGTTG GTCCT GAAGG AGGAT AGG1T-3' as primer and 3'-GCAACCAGGACTTCCTCCTATCCAAAGACA-5' as template incubated at 37 degree C for 60 mins and at 80 degreeC for 3 mins by primer extension assay; conditions: time 63.0 min
[14] = test system: Human immunodeficiency virus; experiment: Substrate activity at HIV reverse transcriptase assessed as DNA elongation using 5'-Cy3-CGTTG GTCCT GAAGG AGGAT AGG1T-3' as primer and 3'-GCAACCAGGACTTCCTCCTATCCAAAGACA-5' as template incubated at 37 degree C for 15 mins and at 80 degreeC for 3 mins by primer extension assay; conditions: time 18.0 min
[15] = test system: Human immunodeficiency virus; experiment: Substrate activity at HIV reverse transcriptase assessed as DNA elongation using 5'-Cy3-CGTTG GTCCT GAAGG AGGAT AGG1T-3' as primer and 3'-GCAACCAGGACTTCCTCCTATCCAAAGACA-5' as template incubated at 37 degree C for 15 mins and at 80 degreeC for 3 mins in presence of TTP by primer extension assay; conditions: time 18.0 min

Q: For `CCCCCCCCCCCCCCCCOP(=O)(O)OP(=O)(O)OP(=O)(O)OC[C@H]1O[C@@H](n2cc(C)c(=O)[nH]c2=O)C[C@@H]1F`, which remaining at 24 h [1] is on record?
A: Its remaining at 24 h is 39%.

Q: Which CC50 [2] does the source give for `Cc1cn([C@H]2C[C@H](F)[C@@H](CO)O2)c(=O)[nH]c1=O` [ALOVUDINE] here?
A: The CC50 was > 100000 nM.

Q: What about the EC50 [3] of the same molecule?
A: Its EC50 is 3.2 nM.

Q: What about the EC50 [4] of the same molecule?
A: The EC50 was 70000 nM.

Q: And the EC50 [5]?
A: The EC50 was 1.6 nM.

Q: With `CCCCCCCCCC(=O)Oc1ccc(COP(=O)(OCc2ccc(OC(=O)CCCCCCCCC)cc2)OP(=O)([O-])OP(=O)([O-])OC[C@H]2O[C@@H](n3cc(C)c(=O)[nH]c3=O)C[C@@H]2F)cc1.[Na+].[Na+]` as the molecule, how does the half-life [6] read?
A: Its half-life is 140 min.

Q: What about the half-life [7] of the same molecule?
A: Its half-life is 81 h.

Q: And the half-life [8]?
A: Its half-life is 3.16 min.

Q: Which half-life [9] does the source give for `Cc1cn([C@H]2C[C@H](O)[C@@H](COP(=O)(O)OP(=O)(O)OP(=O)(O)O)O2)c(=O)[nH]c1=O` [DEOXYTHYMIDINE_TRIPHOSPHATE] here?
A: The half-life was 25.8 min.

Q: And the half-life [10]?
A: The half-life was 30 min.

Q: For `CCCCCCCCCCCCCCCCOP(=O)(OCc1ccc(OC(=O)CCC)cc1)OP(=O)(O)OP(=O)(O)OC[C@H]1O[C@@H](n2cc(C)c(=O)[nH]c2=O)C[C@@H]1F.N.N` (stereo partly drawn), which half-life [11] is on record?
A: Its half-life is 0.582 min.

Q: And the half-life [6]?
A: The half-life was 144 min.

Q: Which half-life [12] does the source give for `Cc1cn([C@H]2C[C@H](F)[C@@H](COP(=O)(O)OP(=O)(O)OP(=O)(O)O)O2)c(=O)[nH]c1=O.N.N.N.N` here?
A: The half-life was 5.04 min.

Q: What about the half-life [9] of the same molecule?
A: The half-life was 25.8 min.

Q: What about the Activity [13] of the same molecule?
A: The Activity was “Active”.

Q: What about the Activity [14] of the same molecule?
A: The Activity was “Active”.

Q: What about the Activity [15] of the same molecule?
A: Its Activity is “Active”.

Q: And the half-life [10]?
A: The half-life was 30 min.
